Legend:
Canis familiaris [1] = organism: Canis familiaris; experiment: Ischemic myocardial half-life measured after intracoronary injection of [13N]-labeled amino acid in dogs (control - 88+/-2); format: ADME, organism-based, Canis lupus familiaris, Myocardium; conditions: dog, in vivo, other
Canis familiaris [2] = organism: Canis familiaris; experiment: Ischemic myocardial residue fraction of [13N]-labeled amino acid was observed with a single pass uptake technique in open-chest instrumented dogs (control - 18.5+/-2.1); format: functional, Canis lupus familiaris
Canis familiaris [3] = organism: Canis familiaris; experiment: Ischemic myocardial residue fraction of [13N]-labeled amino acid was observed with a single pass uptake technique in open-chest instrumented dogs (control - 14+/-4.2); format: functional, Canis lupus familiaris
Canis familiaris [4] = organism: Canis familiaris; experiment: Ischemic myocardial half-life measured after intracoronary injection of [13N]-labeled amino acid in dogs (control - 147+/-12); format: ADME, organism-based, Canis lupus familiaris; conditions: dog, in vivo, other
Canis familiaris [5] = organism: Canis familiaris; experiment: Ischemic myocardial residue fraction of [13N]-labeled amino acid was observed with a single pass uptake technique in open-chest instrumented dogs (control - 8.1+/-3.1); format: functional, Canis lupus familiaris
Canis familiaris [6] = organism: Canis familiaris; experiment: Ischemic myocardial half-life measured after intracoronary injection of [13N]-labeled amino acid in dogs (control - 114.1+/-26.5); format: ADME, organism-based, Canis lupus familiaris, Myocardium; conditions: dog, in vivo, other
Canis familiaris [7] = organism: Canis familiaris; experiment: Ischemic myocardial residue fraction of [13N]-labeled amino acid was observed with a single pass uptake technique in open-chest instrumented dogs (control - 17.3+/-6.1); format: functional, Canis lupus familiaris
Canis familiaris [8] = organism: Canis familiaris; experiment: Ischemic myocardial half-life measured after intracoronary injection of [13N]-labeled amino acid in dogs (control - 15.9+/-0.2); format: ADME, organism-based, Canis lupus familiaris, Myocardium; conditions: dog, in vivo, other

C[C@H](N)C(=O)O [ALANINE]
T1/2 (Canis familiaris [1]): 1.29 h | Residue fraction (Canis familiaris [2]): 19.5%

N[C@@H](CC(=O)O)C(=O)O [ASPARTIC ACID]
Residue fraction (Canis familiaris [3]): 17% | T1/2 (Canis familiaris [4]): 2.87 h

N[C@@H](CCC(=O)O)C(=O)O [GLUTAMIC ACID]
Residue fraction (Canis familiaris [5]): 11.5% | T1/2 (Canis familiaris [6]): 1.35 h

NC(=O)CC[C@H](N)C(=O)O [GLUTAMINE]
Residue fraction (Canis familiaris [7]): 20.5% | T1/2 (Canis familiaris [8]): 0.292 h

— ChEMBL document CHEMBL1121919, “13N-labeled L-amino acids for in vivo assessment of local myocardial metabolism” (J Med Chem, 1981)
